These results are taken from patent publication US20110245759A1, “Methods of Treating An Infection with Nitric Oxide” (NITRIC BIOTHERAPEUTICS, INC., priority 2008, published 2011).

Data set [1] relates to Human head lice, permethrin(kdr)-resistant SF-HL strain. Nature of the data set: Gas chamber bioassay on human head louse females and eggs (Example 13). To be noted: for lice killed: adult female lice, 1 liter/minute. The method, then: The ability of nitric oxide or nitric oxide+oxygen to kill human head louse females and eggs was evaluated using gas chamber bioassay.
Human head lice from the permethrin(kdr)-resistant SF-HL strain were used in a nitric oxide gas bioassay to determine louse mortality at different exposure intervals. Adult female lice and aged eggs (6-8 day old) were used in all bioassays. The lice or eggs were placed in the bottom of a sterile disposable Petri dishes (60×20 mm) and left uncovered. The dish with lice or eggs was placed inside a polyethylene bag and the bag was taped shut with HY-TAPE® (HY-TAPE Intl., Patterson, N.Y.) to seal the chamber and to minimize the volume of gas inside the chamber. The treatments used were either nitric oxide, in combination with oxygen mixed in equal parts at a final concentration of 10,000 ppm nitric oxide and 20% oxygen, or a treatment with nitric oxide alone at 10,000 ppm in nitrogen both with a flow rate of 1 liter/minute. The gas tank was connected to the chamber with PVC tubing and plastic connectors. The nitric oxide, in combination with oxygen, was mixed in the tubing before the chamber inlet. The chamber outlet was also connected with PVC tubing and fed to a NO scrubber to trap the NO gas leaving the chamber. Additionally, tufts of human hair (blond and brown) were placed inside the chamber for a 30 minute exposure interval to nitric oxide+oxygen to assess discoloration of the hair for cosmetic purposes.

Data set [2] concerns moderate-severe interdigital and/or moccasin-type tinea pedis. Put plainly: Single-site placebo-controlled clinical trial of gaseous nitric oxide in moderate-severe tinea pedis (Example 11). It counts as in vivo, human. The note with it: 1% nitric oxide. How it is done: To evaluate the effectiveness of gaseous nitric oxide treatment against moderate-severe interdigital and/or moccasin-type tinea pedis, a single-site, placebo-controlled clinical trial treating≧50 evaluable human patients with moderate-severe interdigital tinea pedis was conducted. […] The foot of each patient was fitted with a flexible, plastic boot-like enclosure that was sealed at the mid-calf (see, for example, FIG. 19) and the foot was bathed with 1% gaseous nitric oxide in nitrogen, or 1% gaseous nitric oxide and 20% oxygen in nitrogen, or placebo (i.e., nitrogen) at a fixed flow of 1 liter per minute for 40 minutes each day for each of three consecutive days, Gas entered the boot-like enclosure near the toe region with passive diffusion from the enclosure into a well-ventilated examination room. Each foot of each patient was fitted with an air-tight, ankle-high covering […] On days 1, 3 and 12, each patient was assessed by a podiatrist blinded to the patient's treatment group and given a clinical symptom severity score ranging from 0 to 64.

In another data set the test system is mild tinea pedis. Put plainly: Single-site clinical trial of gaseous nitric oxide in mild tinea pedis (Example 10). Type of data set: in vivo, human. To be noted: 1% gaseous nitric oxide in nitrogen, 10 patients, FIG. 14. The method, then:
To evaluate the effectiveness of gaseous nitric oxide treatment against mild tinea pedis, a single-site clinical trial treating 10 human patients with mild tinea pedis was conducted. […] The foot of each patient was fitted with a flexible, plastic boot-like enclosure that was sealed at the mid-calf (see, for example, FIG. 19) and the foot was bathed with 1% gaseous nitric oxide in nitrogen at a fixed flow of 1 liter per minute for a total of 2 hours divided over 5 treatment days. Gas entered the boot-like enclosure near the toe region with passive diffusion from the enclosure into a well-ventilated examination room. On day 1, patients were treated for 10 minutes. On day 2, patients were treated for 20 minutes. On each of days 3, 4 and 5, patients were treated for 30 minutes. On days 0, 1, 2, 3, 4, 5 and 12, each patient was assessed by a podiatrist blinded to the patient's treatment group and given a clinical symptom severity score ranging from 0 to 64. The clinical symptom severity score is determined by scoring each of 8 categories (i.e., fissures/cracks, yellow crusting (ruptured blisters), maceration (white moist skin), pruritus (itching), scaling, erythema, vesicles/blisters and burning) on an 8-point scale (i.e., 0=absent, 1-2 mild, 3-5 moderate and 6-8 severe). […]

Data set [3] deals with coagulase-negative Staphylococci (CNS). Put plainly: Full-thickness porcine wounds infected with bacteria, treated with nitric oxide with or without oxygen (Example 1). Type of data set: in vivo, pig.
The conditions of data set [4]: mixture of 1000 ppm nitric oxide and 21% oxygen; cited from earlier work.
[5] abbreviates: 30 minute exposure interval, 10,000 ppm nitric oxide.

For `[N]=O` [nitric oxide], in data set [1] (setting [5]), the “ovicidal activity on aged eggs (6-8 days old)” value is “not ovicidal” and the lice killed entry is “did not kill any”. The lice killed entry in data set [1] (10 minute exposure interval, 10,000 ppm nitric oxide) is given as “did not kill any”. Further, the egg hatchability result in data set [1] (aged eggs (6-8 days old), 30 minute exposure interval, compared with untreated control eggs) was “not different from untreated control eggs”. For the same compound, the “clinical symptom severity score on day 3 compared with day 1” value in data set [2] (40 minutes each day for three days, all patients treated) is “lower on day 3 than on day 1”. Besides, the “clinical symptom severity score on day 12 compared with day 3” value in data set [2] (40 minutes each day for three days, most patients treated) is “lower clinical symptom severity score on day 12 than on day 3”. For the same compound, the “patients with interdigital tinea who reached the primary clinical endpoint score of ≦8” value in data set [2] (of the 13 patients with interdigital tinea) was found to be 8 patients. Besides, the “average clinical symptom severity score (0 to 64) during treatment” value in the data set on mild tinea pedis (1 liter per minute, 2 hours over 5 treatment days) is “began to decrease on the second day of treatment and continued to decrease until the fifth day of treatment”. For the same compound, the “average clinical symptom severity score on day 12, seven days after the last treatment” value with mild tinea pedis is given as “remained as low as it was on day 5”. Also, in data set [3] (10,000 ppm nitric oxide, p<0.05, FIG. 10), the “amount of total bacteria in biopsies taken from the center of the wounds” value is “significant decrease”. Moreover, in data set [3] (pig, in vivo), the “average decrease of total bacteria in center biopsies, compared with nitric oxide in combination with oxygen” value is “smaller decrease”. The “time for half of the nitric oxide to react to become nitric dioxide” value in data set [4] was “about 3.5 minutes”.
